Like-named read-outs stand apart in the source and are kept apart here.
Legend:
tumor growth = conditions: cited from earlier work
[1] = Tissue concentration of methylene-THF in tumor biopsy after i.v. bolus injection of folates; format: in vivo, patients; conditions: tumor biopsy at 20 minutes after i.v. bolus injection; compared with leucovorin
Procedure: The level of increase of tissue concentration of methylene-THF after administration of leucovorin and methylene-THF, respectively, has been compared. Patients operated upon due to liver metastases were given a dose of folates. Biopses were taken from the tumor before i.v. bolus injection of leucovorin on methylenetetrahydrofolate. At 20 minutes a new tumor biopsy was taken and the concentration of MTHF was assayed.

[2] = system: experimental adenocarcinoma
Procedure: Eight inbred female Wistar rats were during general anesthesia inoculated in the central liver lobe with 0.1 ml of 1.0 million viable tumor cells of an experimental adenocarcinoma. On day 5 the animals were relaparotomized during general anesthesia, the body weight was recorded and the size of the solitary liver tumor was measured with vernier calipers.
The animals were randomly allocated to two groups. Group 1 received intravenous injections of ALIMTA (pemetrexed) 0.01 mg/kg and group 2 received 0.1 mg/kg of ALIMTA. Both groups received 15 mg/kg of R-5,10-CH2FH4 immediately following the injections of ALIMTA. Therapy was administered through intravenous injections via the tail vein on days 6-8 and days 11-12. On day 13 all animals were sacrificed by an overdose of anesthesia.
The body weights were recorded and the size of the liver tumors was measured. The wet weights of the excised liver tumor and spleen were recorded.

TS = TS expression levels after Tomudex intravenous bolus injection in colorectal cancer patients; format: in vivo; conditions: multi-targeting antifolate only
Procedure: In this experiment, the effect of a multi-targeting antifolate, i.e. Tomudex (raltitrexed), was shown.
Nine colorectal cancer patients were included in the study, and the expression levels were measured in actin, which is a protein serving as an important structural molecule for the cytoskeletons of many eukaryotic cells.

Structure (SMILES): O=c1[nH]cc(F)c(=O)[nH]1 [5-FU, 5-fluorouracil]
- tumor growth suppression (tumor growth; 5-FU administered to folate depleted animals 1 hr after folinic acid): approximately 80%
- tumor growth suppression (tumor growth; control mice): approximately 50%
- effect on tumor growth (tumor growth; folinic acid administered 12 hr before 5-FU): tumor growth stimulation

Structure (SMILES): Nc1nc2c(c(=O)[nH]1)N1CN(c3ccc(C(=O)N[C@@H](CCC(=O)O)C(=O)O)cc3)CC1CN2 (stereo partly drawn) [methylene-THF, 5,10-methylene-tetrahydrofolate]
- tissue concentration of methylene-THF in tumor [1]: greater tissue concentration of methylene-THF than leucovorin

Structure (SMILES): Nc1nc2c(c(=O)[nH]1)N(C=O)C(CNc1ccc(C(=O)N[C@@H](CCC(=O)O)C(=O)O)cc1)CN2 (stereo partly drawn) [folinic acid]
- effect on tumor growth (tumor growth; folinic acid administered without 5-FU): pronounced growth stimulation

Structure (SMILES): Nc1nc2[nH]cc(CCc3ccc(C(=O)N[C@@H](CCC(=O)O)C(=O)O)cc3)c2c(=O)[nH]1 [ALIMTA, pemetrexed]
- extrahepatic tumor growth ([2]; ALIMTA 0.01 mg/kg i.v. + 15 mg/kg R-5,10-CH2FH4 (group 1), day 13): extrahepatic tumor growth in the abdominal cavity as metastases to the lungs
- extrahepatic metastases ([2]; highest Alimta dose (0.1 mg/kg i.v.) + 15 mg/kg R-5,10-CH2FH4 (group 2)): no extrahepatic metastases were recorded

Structure (SMILES): Cc1nc2ccc(CN(C)c3ccc(C(=O)N[C@@H](CCC(=O)O)C(=O)O)s3)cc2c(=O)[nH]1 [Tomudex, raltitrexed]
- clinical toxicity (TS; clinical findings): severe toxic effects from the bowel made it impossible to continue the treatment
- effect on normal mucosa versus tumor (TS expression levels) (TS; intravenous bolus injection): the normal mucosa is actually more adversely affected than the tumor
